Laboratory results published in patent publication US20230256094A1, “CANCER RADIOSENSITIZATION BY IN SITU FORMATION OF GOLD NANOPARTICLES AND/OR GOLD NANOCLUSTERS” (BOARD OF REGENTS, THE UNIVERSITY OF TEXAS SYSTEM, priority 2020, published 2023).
“Also recorded” adds a separate entry of the source.

Key:
[1] = test system: 3T3 mouse fibroblast cells; assay: MTS assay of radiosensitization after X-ray irradiation; type: cell-based; conditions: 0 Gy
Experimental: Our initial evaluation of radiosensitization via intracellular GNP formation was performed with 3T3 mouse fibroblast cells. […] Radiosensitization with intracellular GNC formation (i.e., delivery of Au^3+) was compared with pre-fabricated albumin-coated GNCs (Albumin-GNC) prepared according to work by Xie^46 and control cells without treatment via MTS assay (FIG. 3B).
3T3 cells were first incubated with either 1 mM of sodium chloroaurate or albumin-GNCs (0.1 mM Au^0)in cell culture media for 10 hours. Then, the cells including the nontreated control were irradiated with X-rays at dosages of 0, 4 and 6 Gy in the X-ray X-RAD 225 CX irradiator system (Precision).
In our future studies we will use a standard clonogenic survival assay for quantitation of the radiosensitization effect.

[2] = test system: pancreatic noncancerous cells (HPDE); assay: Confocal fluorescence imaging of in situ GNC synthesis; type: cell-based; conditions: 1 mM, 24 hours, 561 nm excitation, 610 nm emission
Experimental: FIG. 4 presents fluorescence confocal images of non-cancerous (HPDE) and cancerous (MIAPaCa2) pancreatic cells treated with either 1 mM of Au^3+ gold ions or premade albumin-GNCs at 1 mM Au^0 for 24 hours. (From left to right) Cells: untreated; treated with albumin-GNCs; treated with Au^3+ gold ions. […] The strong red fluorescence in cancer cells indicated intracellular synthesis of GNCs from gold ions. Scale bars are 25 μm.
We compared in situ synthesis of GNCs by pancreatic cancer cells (MIAPACA2) and pancreatic noncancerous cells (HPDE) (FIG. 4). Confocal fluorescence images were obtained using a Leica TCS SP8 confocal microscope with 561 nm excitation and 610 nm emission optimized for detection of GNCs.

[3] = test system: cancerous (Mia-PaCa-2 and PANC1) vs normal (HPDE) pancreatic cells; assay: Fluorescent confocal microscopy of GNC biosynthesis, cancerous vs normal cells; type: cell-based; conditions: 1.00 mM, 24 hr (FIG. 8B)
Text: (§1) Hoechst nuclear stain is the only imaging source in the untreated column and the primary imaging source in the albumin-GNC column and the non-cancer Au^3+ panel. Cells are live during imaging. Scale bars are 10 μm.
(§2) FIG. 8B quantifies GNC channel pixel intensity of the samples in each of the rows of FIG. 8A.
(§3) 2.2. Comparisons of efficiency of the GNC in situ synthesis by cancer and normal cells. We compared GNC biosynthesis between normal (HPDE) and cancerous (Mia-PaCa-2 and PANC1) pancreatic cells using fluorescent confocal microscopy (FIG. 8A). In addition, we compared the efficiency of the intracellular synthesis with extracellular uptake of prefabricated albumin coated GNCs (FIG. 8A). […] Further, there was 12.20- and 7.69-times greater fluorescence due to in situ synthesis relative to cellular uptake of prefabricated GNCs in PANC1 and Mia-PaCa-2 cells, respectively (FIG. 8B).

[4] = test system: Mia-PaCa-2 cells; assay: Fluorescence of in situ synthesis vs uptake of prefabricated GNCs; type: cell-based, human; conditions: 1.00 mM, 24 hr (FIG. 8B)
Text: as §1, §2, §3

[5] = test system: PANC1 cells; assay: as above; type: cell-based, human; conditions: 1.00 mM, 24 hr (FIG. 8B)
Text: as §1, §2, §3

[6] = test system: PANC1 pancreatic cancer cells; assay: Longitudinal live cell confocal fluorescence imaging of the intracellular distribution of GNCs; type: cell-based, human; conditions: 0.20 mM, 20 hr time period
Text: 2.1. Intracellular distribution and time dependence of gold nanocluster (GNC) in situ formation. […] Then, we used longitudinal live cell confocal fluorescence imaging to observe time dependence of the intracellular distribution of GNCs formed through biomineralization of Au^3+.

[7] = test system: PANC1 cells; assay: MTS viability assay; type: cell-based
Experimental: 2.4. Characterize cytotoxicity of gold atom treatment. An MTS viability assay was used with 0-2.0 mM Au^3+ dose range. […] MTS assay was not usable at concentrations >0.75 mM Au^3+ due to intracellular formation of larger GNPs and their absorbance interfering with the MTS results. Therefore, at higher Au^3+ we switched to AO/PI live-dead staining (FIG. 15) and JC-1 mitochondrial depolarization assays (FIG. 19). JC-1 assay indicated cell viability ˜80% for concentrations between 0.20-1.50 mM Au^3+.

[8] = test system: PANC1 pancreatic cancer; assay: JC-1 assay of mitochondrial polarization after irradiation; type: cell-based, human; conditions: 24 hr post-irradiation, 8 Gy
Experimental: (§4) FIG. 22 reports on a mechanistic study of radiosensitization quantifying mitochondrial depolarization through JC-1 assay measured at 0, 1, and 24 hours, resulting from 24 hour, 0.20 mM Au^3+ treatments (lower three) compared against non-treated (upper three) combined with either 0 Gy or 8 Gy x-ray irradiation. Treatments are in full cell media to PANC1 pancreatic cancer.
The JC-1 assay measures the charge potential of the mitochondria of cells through the fluorometric ratio of the JC-1 dye (ThermoFisher Scientific, Waltham, Mass.). JC-1 is a cationic carbocyanine dye that accumulates in mitochondria. The dye exists as a monomer at low concentrations and yields green fluorescence, similar to fluorescein. […] These characteristics make JC-1 a sensitive marker for mitochondrial membrane potential. In other words, mitochondrial depolarization is indicated by a decrease in the red/green fluorescence intensity ratio. Mitochondrial depolarization is an indicator of reduced cell viability.
(§5) Further, we characterized the mechanisms of radiosensitization through (i) quantification of double stranded DNA breaks via y-H2AX Foci (FIG. 21), (ii) mitochondrial polarization via JC-1 assay (FIG. 22), (iii) NADP total (FIG. 23) and NADP:NADPH ratio (FIG. 24) via NADP(H) assay, and (iv) peroxidation production via TBARS assay (FIG. 25).

[9] = test system: PANC1 pancreatic cancer; assay: NADP(H) assay after irradiation; type: cell-based, human; conditions: 24 hr post-irradiation
Experimental: as §4, with “23” for “22”, “total NADP” for “mitochondrial depolarization”, “NADP” for “JC-1”, “(right four bars)” for “(lower three)”, “(left four bars)” for “(upper three)”
as §4, with “24” for “22”, “the ratio of NADP^+/NADPH” for “mitochondrial depolarization”, “NADP” for “JC-1”, “(right)” for “(lower three)”, “(left)” for “(upper three)”
as §5

SMILES: [Au+3].[Cl-].[Cl-].[Cl-].[Cl-].[H+] [Au^3+, chloroauric acid]
- cell viability / cytotoxicity, treated vs untreated cells [1]: no difference in cell viability
- cell viability / cytotoxicity, treated vs untreated cells ([1]; listed as chloroauric acid): not cytotoxic
- GNC fluorescence / GNC formation [2]: only sparsely seen
- greater fluorescence due to GNC biomineralization in cancerous cells than in non-cancerous HPDE [3]: ~2 fold
- greater fluorescence due to in situ synthesis relative to cellular uptake of prefabricated GNCs [4]: 7.69 times
- greater fluorescence due to in situ synthesis relative to cellular uptake of prefabricated GNCs [5]: 12.20 times
- subcellular region of greatest GNC formation [6]: nucleolus had the highest rate of GNC formation; also recorded: greatest in the nucleolus
- impact on viability (MTS) ([7]; 0.0-0.20 mM): no impacts on viability
- cell viability (MTS) ([7]; 0.75 mM): ~81%
- recovery of mitochondrial depolarization [8]: no recovery in the mitochondrial depolarization
- NADP total lower than for non-treated cells [9]: ~43%
- NADP:NADPH ratio larger than for non-treated cells [9]: 181%
